Measured values published in ChEMBL document CHEMBL5291721, “A preclinical secondary pharmacology resource illuminates target-adverse drug reaction associations of marketed drugs” (Nat Commun, 2023).

Key:
[1] = target: T1, Alpha-1A adrenergic receptor (Homo sapiens, UniProt P35348)
T1 sequence (P35348 whole entry): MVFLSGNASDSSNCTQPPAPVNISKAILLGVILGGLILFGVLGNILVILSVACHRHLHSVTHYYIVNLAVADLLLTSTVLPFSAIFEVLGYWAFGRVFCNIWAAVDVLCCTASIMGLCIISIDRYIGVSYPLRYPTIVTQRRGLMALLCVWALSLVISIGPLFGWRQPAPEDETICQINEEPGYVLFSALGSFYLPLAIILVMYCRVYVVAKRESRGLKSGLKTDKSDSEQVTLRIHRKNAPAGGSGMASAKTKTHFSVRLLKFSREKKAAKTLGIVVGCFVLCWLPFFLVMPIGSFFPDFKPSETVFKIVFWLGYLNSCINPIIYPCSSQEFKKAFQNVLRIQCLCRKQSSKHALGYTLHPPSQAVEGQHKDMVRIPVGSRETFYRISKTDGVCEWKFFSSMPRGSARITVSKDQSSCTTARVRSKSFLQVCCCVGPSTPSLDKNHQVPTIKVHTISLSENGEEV

[2] = target: T2, 5-hydroxytryptamine receptor 3A (Homo sapiens, UniProt P46098); type: functional
T2 sequence (P46098 whole entry): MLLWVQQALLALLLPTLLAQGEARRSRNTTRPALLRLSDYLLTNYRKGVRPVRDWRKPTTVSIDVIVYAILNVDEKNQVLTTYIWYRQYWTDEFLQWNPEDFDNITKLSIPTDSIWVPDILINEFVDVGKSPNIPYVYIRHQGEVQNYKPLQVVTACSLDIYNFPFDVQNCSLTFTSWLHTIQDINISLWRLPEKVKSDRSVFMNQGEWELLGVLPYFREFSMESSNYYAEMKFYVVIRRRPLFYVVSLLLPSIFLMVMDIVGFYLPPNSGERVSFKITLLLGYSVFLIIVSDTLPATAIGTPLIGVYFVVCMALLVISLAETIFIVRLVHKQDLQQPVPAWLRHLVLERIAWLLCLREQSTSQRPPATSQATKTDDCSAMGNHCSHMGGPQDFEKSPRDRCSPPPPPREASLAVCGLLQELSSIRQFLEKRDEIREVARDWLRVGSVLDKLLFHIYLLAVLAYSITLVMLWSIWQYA

[3] = target: Delta-type opioid receptor (Homo sapiens, UniProt P41143)
[4] = target: Sodium-dependent noradrenaline transporter (Homo sapiens, UniProt P23975)
Melanocortin receptor 4 = Melanocortin receptor 4 (Homo sapiens, UniProt P32245)
[5] = target: Neuronal acetylcholine receptor subunit alpha-4 (Homo sapiens, UniProt P43681)
[6] = target: Sodium-dependent serotonin transporter (Homo sapiens, UniProt P31645)
[7] = target: Gamma-aminobutyric acid receptor subunit alpha-1 (Rattus norvegicus, UniProt P62813); type: functional
[8] = target: T3, Muscarinic acetylcholine receptor M2 (Homo sapiens, UniProt P08172); type: functional, cell-based
T3 sequence (P08172 whole entry): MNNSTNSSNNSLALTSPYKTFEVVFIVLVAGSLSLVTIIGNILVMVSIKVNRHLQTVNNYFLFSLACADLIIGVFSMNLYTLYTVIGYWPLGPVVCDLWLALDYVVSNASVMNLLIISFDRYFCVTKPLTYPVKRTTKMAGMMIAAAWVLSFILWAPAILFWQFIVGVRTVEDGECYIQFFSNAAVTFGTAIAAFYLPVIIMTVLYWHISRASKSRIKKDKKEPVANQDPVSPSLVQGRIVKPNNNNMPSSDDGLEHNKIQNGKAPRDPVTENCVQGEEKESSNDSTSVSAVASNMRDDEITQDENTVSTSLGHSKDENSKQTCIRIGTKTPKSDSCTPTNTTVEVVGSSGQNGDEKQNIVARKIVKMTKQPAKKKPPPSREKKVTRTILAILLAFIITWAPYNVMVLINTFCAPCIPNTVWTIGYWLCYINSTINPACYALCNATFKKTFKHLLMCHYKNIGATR

[9] = target: Growth hormone secretagogue receptor type 1 (Homo sapiens, UniProt Q92847)
[10] = target: T4, Alpha-2A adrenergic receptor (Homo sapiens, UniProt P08913); type: functional, cell-based
T4 sequence (P08913 whole entry): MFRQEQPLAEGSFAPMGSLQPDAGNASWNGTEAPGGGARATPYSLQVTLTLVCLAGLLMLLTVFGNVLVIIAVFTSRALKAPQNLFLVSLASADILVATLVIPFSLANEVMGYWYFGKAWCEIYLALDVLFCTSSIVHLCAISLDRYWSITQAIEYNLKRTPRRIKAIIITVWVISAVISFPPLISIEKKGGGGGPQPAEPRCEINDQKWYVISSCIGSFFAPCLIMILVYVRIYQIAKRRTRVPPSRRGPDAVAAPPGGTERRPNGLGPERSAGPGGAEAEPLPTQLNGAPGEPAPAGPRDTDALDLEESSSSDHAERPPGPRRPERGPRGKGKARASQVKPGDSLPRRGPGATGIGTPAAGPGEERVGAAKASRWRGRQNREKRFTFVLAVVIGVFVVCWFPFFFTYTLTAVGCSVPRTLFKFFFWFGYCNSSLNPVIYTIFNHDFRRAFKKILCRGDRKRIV

[11] = target: Sodium-dependent dopamine transporter (Homo sapiens, UniProt Q01959)
[12] = target: T5, Type-1 angiotensin II receptor (Homo sapiens, UniProt P30556)
T5 sequence (P30556 whole entry): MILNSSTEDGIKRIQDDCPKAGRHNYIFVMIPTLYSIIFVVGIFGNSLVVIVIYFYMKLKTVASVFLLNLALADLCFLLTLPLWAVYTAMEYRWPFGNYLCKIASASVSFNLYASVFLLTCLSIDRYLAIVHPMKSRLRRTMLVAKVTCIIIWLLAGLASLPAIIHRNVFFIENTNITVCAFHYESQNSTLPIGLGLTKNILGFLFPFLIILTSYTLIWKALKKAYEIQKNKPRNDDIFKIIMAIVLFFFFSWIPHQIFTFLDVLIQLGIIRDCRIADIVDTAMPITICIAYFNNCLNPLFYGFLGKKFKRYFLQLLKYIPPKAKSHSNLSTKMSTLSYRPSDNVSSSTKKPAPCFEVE

Histamine H1 receptor = Histamine H1 receptor (Homo sapiens, UniProt P35367)
Note: assay procedure not described here.

Chain of Sodium-dependent noradrenaline transporter (P23975 whole entry): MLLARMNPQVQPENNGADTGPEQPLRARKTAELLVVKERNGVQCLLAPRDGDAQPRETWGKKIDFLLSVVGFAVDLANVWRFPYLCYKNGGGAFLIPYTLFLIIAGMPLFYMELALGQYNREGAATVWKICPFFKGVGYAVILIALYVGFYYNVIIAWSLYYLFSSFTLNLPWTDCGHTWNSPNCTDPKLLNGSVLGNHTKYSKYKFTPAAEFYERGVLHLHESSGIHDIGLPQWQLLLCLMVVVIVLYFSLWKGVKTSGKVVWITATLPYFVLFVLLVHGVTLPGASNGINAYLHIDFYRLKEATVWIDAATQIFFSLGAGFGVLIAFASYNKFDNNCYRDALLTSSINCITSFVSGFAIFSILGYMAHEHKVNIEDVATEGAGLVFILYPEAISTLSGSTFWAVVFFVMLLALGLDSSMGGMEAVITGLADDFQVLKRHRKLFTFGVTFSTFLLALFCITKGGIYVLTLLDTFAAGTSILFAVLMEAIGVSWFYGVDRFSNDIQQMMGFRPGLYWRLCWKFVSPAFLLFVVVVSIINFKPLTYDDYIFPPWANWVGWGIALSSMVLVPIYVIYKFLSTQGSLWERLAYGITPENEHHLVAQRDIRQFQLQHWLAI
Chain of Histamine H1 receptor (P35367 whole entry): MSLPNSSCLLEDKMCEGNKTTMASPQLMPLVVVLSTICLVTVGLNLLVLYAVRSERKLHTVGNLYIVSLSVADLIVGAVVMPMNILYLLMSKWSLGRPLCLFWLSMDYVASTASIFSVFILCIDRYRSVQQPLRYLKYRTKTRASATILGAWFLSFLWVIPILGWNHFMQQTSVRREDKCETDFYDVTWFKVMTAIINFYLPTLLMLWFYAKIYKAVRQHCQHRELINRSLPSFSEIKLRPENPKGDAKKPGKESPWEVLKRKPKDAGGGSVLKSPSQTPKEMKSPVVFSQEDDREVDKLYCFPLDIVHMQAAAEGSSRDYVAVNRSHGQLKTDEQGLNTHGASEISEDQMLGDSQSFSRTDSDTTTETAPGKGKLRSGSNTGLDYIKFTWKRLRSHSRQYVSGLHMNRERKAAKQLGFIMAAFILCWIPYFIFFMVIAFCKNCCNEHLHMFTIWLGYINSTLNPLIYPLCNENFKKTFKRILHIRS
Chain of Melanocortin receptor 4 (P32245 whole entry): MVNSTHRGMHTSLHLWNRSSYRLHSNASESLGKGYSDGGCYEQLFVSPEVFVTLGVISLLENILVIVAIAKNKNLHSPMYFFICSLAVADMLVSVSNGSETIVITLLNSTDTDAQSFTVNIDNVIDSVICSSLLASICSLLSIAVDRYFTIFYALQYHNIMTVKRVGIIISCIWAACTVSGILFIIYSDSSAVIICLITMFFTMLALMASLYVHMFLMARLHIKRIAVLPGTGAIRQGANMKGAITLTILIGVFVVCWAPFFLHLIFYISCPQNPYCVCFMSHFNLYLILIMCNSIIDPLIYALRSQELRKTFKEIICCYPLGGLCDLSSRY
Chain of Sodium-dependent dopamine transporter (Q01959 whole entry): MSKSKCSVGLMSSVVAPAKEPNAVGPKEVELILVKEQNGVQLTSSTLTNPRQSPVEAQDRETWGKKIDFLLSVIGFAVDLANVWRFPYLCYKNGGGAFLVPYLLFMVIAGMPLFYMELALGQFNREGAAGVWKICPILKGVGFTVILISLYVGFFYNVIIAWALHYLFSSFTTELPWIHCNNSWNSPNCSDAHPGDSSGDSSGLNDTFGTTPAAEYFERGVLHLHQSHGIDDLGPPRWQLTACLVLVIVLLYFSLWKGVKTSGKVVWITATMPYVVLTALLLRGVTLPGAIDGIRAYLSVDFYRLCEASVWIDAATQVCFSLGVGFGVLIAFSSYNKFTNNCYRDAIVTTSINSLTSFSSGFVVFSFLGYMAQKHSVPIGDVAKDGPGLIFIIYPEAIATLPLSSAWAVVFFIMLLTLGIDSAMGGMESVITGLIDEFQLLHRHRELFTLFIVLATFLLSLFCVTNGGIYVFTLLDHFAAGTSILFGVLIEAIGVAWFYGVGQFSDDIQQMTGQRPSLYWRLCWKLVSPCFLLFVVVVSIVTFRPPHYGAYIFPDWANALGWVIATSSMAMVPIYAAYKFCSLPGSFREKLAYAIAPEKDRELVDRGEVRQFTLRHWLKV
Chain of Growth hormone secretagogue receptor type 1 (Q92847 whole entry): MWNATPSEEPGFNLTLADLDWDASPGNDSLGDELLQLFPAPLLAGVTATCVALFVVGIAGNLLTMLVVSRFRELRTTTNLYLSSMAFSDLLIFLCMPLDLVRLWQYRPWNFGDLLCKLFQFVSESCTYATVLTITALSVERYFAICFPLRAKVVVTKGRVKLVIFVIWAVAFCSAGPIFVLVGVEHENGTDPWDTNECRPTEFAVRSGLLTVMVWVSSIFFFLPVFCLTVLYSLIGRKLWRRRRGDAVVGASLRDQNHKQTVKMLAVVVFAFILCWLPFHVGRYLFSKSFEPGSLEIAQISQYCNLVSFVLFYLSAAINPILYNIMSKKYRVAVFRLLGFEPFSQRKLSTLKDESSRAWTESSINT
Chain of Neuronal acetylcholine receptor subunit alpha-4 (P43681 whole entry): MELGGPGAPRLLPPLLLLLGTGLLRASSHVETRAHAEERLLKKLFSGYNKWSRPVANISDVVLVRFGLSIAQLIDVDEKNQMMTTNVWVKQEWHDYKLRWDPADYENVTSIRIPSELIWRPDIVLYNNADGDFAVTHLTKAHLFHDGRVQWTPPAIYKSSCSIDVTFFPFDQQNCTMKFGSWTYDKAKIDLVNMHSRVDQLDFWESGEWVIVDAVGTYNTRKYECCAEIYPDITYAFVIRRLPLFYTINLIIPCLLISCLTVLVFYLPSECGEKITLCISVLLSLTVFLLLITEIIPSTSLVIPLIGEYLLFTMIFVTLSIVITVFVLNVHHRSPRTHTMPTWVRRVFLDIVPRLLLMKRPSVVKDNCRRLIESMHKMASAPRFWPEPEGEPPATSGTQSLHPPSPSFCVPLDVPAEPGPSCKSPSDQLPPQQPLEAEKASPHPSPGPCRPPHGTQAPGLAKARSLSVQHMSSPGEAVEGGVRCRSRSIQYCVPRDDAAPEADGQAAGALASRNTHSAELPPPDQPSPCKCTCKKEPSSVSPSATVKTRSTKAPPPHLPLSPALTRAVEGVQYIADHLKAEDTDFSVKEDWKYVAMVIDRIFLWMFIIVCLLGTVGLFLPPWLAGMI
Chain of Delta-type opioid receptor (P41143 whole entry): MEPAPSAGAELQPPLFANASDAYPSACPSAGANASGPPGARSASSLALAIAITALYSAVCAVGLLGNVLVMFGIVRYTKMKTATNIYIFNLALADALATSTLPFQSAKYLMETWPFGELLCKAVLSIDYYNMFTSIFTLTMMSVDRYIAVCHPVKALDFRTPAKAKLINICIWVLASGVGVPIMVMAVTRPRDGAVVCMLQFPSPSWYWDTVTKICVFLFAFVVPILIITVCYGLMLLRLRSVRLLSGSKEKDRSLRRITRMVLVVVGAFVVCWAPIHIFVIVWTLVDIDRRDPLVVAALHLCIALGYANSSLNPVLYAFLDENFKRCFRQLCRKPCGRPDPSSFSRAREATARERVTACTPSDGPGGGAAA
Chain of Gamma-aminobutyric acid receptor subunit alpha-1 (P62813 whole entry): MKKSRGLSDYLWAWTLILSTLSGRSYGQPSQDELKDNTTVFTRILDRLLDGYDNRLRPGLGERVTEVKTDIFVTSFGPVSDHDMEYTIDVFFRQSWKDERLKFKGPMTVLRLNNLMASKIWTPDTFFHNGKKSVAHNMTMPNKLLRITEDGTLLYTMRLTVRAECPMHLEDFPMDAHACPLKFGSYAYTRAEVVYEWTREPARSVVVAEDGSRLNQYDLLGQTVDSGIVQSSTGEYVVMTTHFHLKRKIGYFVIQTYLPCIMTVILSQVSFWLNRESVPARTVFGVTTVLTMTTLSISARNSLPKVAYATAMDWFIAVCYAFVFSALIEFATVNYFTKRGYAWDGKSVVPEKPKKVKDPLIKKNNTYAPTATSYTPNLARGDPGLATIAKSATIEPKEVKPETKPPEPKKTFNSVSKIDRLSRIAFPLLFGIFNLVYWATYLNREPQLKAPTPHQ
Chain of Sodium-dependent serotonin transporter (P31645 whole entry): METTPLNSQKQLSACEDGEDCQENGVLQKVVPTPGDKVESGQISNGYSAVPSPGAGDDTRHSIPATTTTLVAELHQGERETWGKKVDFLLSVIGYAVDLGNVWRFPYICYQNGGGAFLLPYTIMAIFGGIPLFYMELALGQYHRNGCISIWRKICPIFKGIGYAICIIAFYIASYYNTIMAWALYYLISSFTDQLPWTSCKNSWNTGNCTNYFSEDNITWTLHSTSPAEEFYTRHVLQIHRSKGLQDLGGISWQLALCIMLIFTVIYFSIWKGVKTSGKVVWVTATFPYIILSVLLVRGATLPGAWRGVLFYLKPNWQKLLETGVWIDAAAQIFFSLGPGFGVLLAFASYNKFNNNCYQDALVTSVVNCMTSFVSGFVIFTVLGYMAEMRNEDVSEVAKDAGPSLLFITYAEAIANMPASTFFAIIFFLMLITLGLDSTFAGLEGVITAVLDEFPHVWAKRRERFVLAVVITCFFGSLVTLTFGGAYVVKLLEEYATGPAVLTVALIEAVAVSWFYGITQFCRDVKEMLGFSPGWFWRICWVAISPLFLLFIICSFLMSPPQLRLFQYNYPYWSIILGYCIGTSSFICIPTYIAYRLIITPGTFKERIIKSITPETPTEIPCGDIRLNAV

## CN1C(=O)CN=C(c2ccccc2F)c2cc([N+](=O)[O-])ccc21 [FLUNITRAZEPAM]
[1]
  AC50: > 10 µM
[2]
  AC50: > 10 µM
[3]
  AC50: > 10 µM
[4]
  AC50: > 10 µM
Melanocortin receptor 4
  AC50: > 30 µM
[5]
  AC50: > 10 µM
[6]
  AC50: > 10 µM
[7]
  AC50: 0.0055 µM
[8]
  AC50: > 10 µM
[9]
  AC50: 29.1 µM
[10]
  AC50: > 10 µM
[11]
  AC50: > 10 µM
[12]
  AC50: > 30 µM
Histamine H1 receptor
  AC50: > 10 µM

## TEPRENONE
[1]
  AC50: > 10 µM
[2]
  AC50: > 30 µM
[3]
  AC50: > 30 µM
[4]
  AC50: > 30 µM
Melanocortin receptor 4
  AC50: > 30 µM
[5]
  AC50: > 10 µM
[7]
  AC50: > 10 µM
[8]
  AC50: > 10 µM
[9]
  AC50: > 30 µM
[10]
  AC50: > 10 µM
[11]
  AC50: > 30 µM
[12]
  AC50: 8.72 µM
Histamine H1 receptor
  AC50: > 10 µM

## CCC1(C)CC(=O)NC1=O (stereo not given) [ETHOSUXIMIDE]
[1]
  AC50: > 30 µM
[2]
  AC50: > 30 µM
[3]
  AC50: > 30 µM
[4]
  AC50: > 10 µM
Melanocortin receptor 4
  AC50: > 10 µM
[5]
  AC50: > 10 µM
[7]
  AC50: > 10 µM
[8]
  AC50: > 10 µM
[9]
  AC50: > 10 µM
[10]
  AC50: > 10 µM
[11]
  AC50: > 10 µM
[12]
  AC50: > 10 µM

## CC(C)CN(C[C@@H](O)[C@H](Cc1ccccc1)NC(=O)O[C@H]1CCOC1)S(=O)(=O)c1ccc(N)cc1
[1]
  AC50: > 10 µM
[2]
  AC50: > 30 µM
[3]
  AC50: > 30 µM
[4]
  AC50: > 10 µM
Melanocortin receptor 4
  AC50: > 30 µM
[5]
  AC50: > 30 µM
[7]
  AC50: > 10 µM
[8]
  AC50: > 10 µM
[9]
  AC50: > 30 µM
[10]
  AC50: > 10 µM
[11]
  AC50: > 10 µM
[12]
  AC50: > 10 µM

## CC1CC(OC(=O)C(O)c2ccccc2)CC(C)(C)C1 (stereo not given) [CYCLANDELATE]
[1]
  AC50: > 10 µM
[2]
  AC50: > 30 µM
[3]
  AC50: > 30 µM
[4]
  AC50: > 30 µM
Melanocortin receptor 4
  AC50: > 10 µM
[5]
  AC50: > 10 µM
[7]
  AC50: > 10 µM
[8]
  AC50: > 10 µM
[9]
  AC50: > 10 µM
[10]
  AC50: > 10 µM
[11]
  AC50: > 30 µM
[12]
  AC50: > 10 µM

## Cc1nnc2n1-c1ccc(Cl)cc1C(c1ccccc1)=NC2 [ALPRAZOLAM]
[1]
  AC50: > 10 µM
[2]
  AC50: > 30 µM
[3]
  AC50: > 30 µM
[4]
  AC50: > 10 µM
Melanocortin receptor 4
  AC50: > 30 µM
[5]
  AC50: > 10 µM
[7]
  AC50: 0.0042 µM
[8]
  AC50: > 10 µM
[9]
  AC50: > 30 µM
[10]
  AC50: > 10 µM
[11]
  AC50: > 10 µM
[12]
  AC50: > 30 µM

## CC1Cc2ccccc2N1NC(=O)c1ccc(Cl)c(S(N)(=O)=O)c1 (stereo not given) [INDAPAMIDE]
[1]
  AC50: > 10 µM
[2]
  AC50: > 30 µM
[3]
  AC50: > 30 µM
[4]
  AC50: > 30 µM
Melanocortin receptor 4
  AC50: > 30 µM
[5]
  AC50: > 10 µM
[7]
  AC50: > 10 µM
[8]
  AC50: > 10 µM
[9]
  AC50: > 30 µM
[10]
  AC50: > 10 µM
[11]
  AC50: > 30 µM
[12]
  AC50: > 30 µM

## CN(Cc1ccc(C(C)(C)C)cc1)Cc1cccc2ccccc12 [BUTENAFINE]
[1]
  AC50: > 10 µM
[2]
  AC50: > 30 µM
[3]
  AC50: > 30 µM
[4]
  AC50: > 10 µM
Melanocortin receptor 4
  AC50: > 10 µM
[5]
  AC50: > 10 µM
[7]
  AC50: > 10 µM
[8]
  AC50: > 10 µM
[9]
  AC50: > 10 µM
[10]
  AC50: > 10 µM
[11]
  AC50: > 10 µM
[12]
  AC50: > 10 µM

## CC1=C(CC(=O)O)c2cc(F)ccc2/C1=C\c1ccc([S+](C)[O-])cc1 (stereo not given)
[1]
  AC50: > 10 µM
[2]
  AC50: > 30 µM
[3]
  AC50: > 30 µM
[4]
  AC50: > 30 µM
Melanocortin receptor 4
  AC50: > 30 µM
[5]
  AC50: > 10 µM
[7]
  AC50: > 10 µM
[8]
  AC50: > 10 µM
[9]
  AC50: > 30 µM
[10]
  AC50: > 10 µM
[11]
  AC50: > 30 µM
[12]
  AC50: > 30 µM

## Cc1cnc(Nc2ccc(OCCN3CCCC3)cc2)nc1Nc1cccc(S(=O)(=O)NC(C)(C)C)c1 [FEDRATINIB]
[1]
  AC50: > 10 µM
[2]
  AC50: > 30 µM
[3]
  AC50: > 30 µM
[4]
  AC50: 0.24 µM
Melanocortin receptor 4
  AC50: > 30 µM
[5]
  AC50: > 10 µM
[6]
  AC50: 0.732 µM
[7]
  AC50: > 10 µM
[8]
  AC50: > 10 µM
[9]
  AC50: 9.16 µM
[10]
  AC50: > 10 µM
[11]
  AC50: 0.08 µM
[12]
  AC50: > 30 µM
Histamine H1 receptor
  AC50: > 10 µM
